Experimental data as given in patent publication US20120277180A1, “Cofactors and Methods for Use for Individuals” (VITAPATH GENETICS, INC, priority 2009, published 2012).
Entries after “also recorded” stand apart in the source; their conditions may differ. Where two headings read alike, the source gives them in different places.

Assays:
[1] = upper level of intake considered safe for adults; cited from earlier work
human MTHFR [2] = experiment: In vivo yeast complementation growth assay: MTHFR alleles in fol3 met13 haploid yeast, growth without methionine with titrated folinic acid; type: cell-based; settings: for Interaction of substitutions in compound (double-substitution) alleles with A222V: growth at 50 and 25 ug/ml folinic acid; for Functional impact / folate-responsiveness of MTHFR allele (growth in the absence of methionine): over a range of folinic acid concentrations, relative to the major allele
human MTHFR [3] = experiment: Thermolability of MTHFR variants (heat treatment at 55° C. before enzyme assay); type: biochemical
Method: MTHFR enzyme activity assay. The assay, which measures the reverse reaction of that catalyzed by MTHFR under physiological conditions, was as described (Shan et al, 1999, supra) with the following modifications: Yeast extracts were created by bead lysis of 40 CD595 cell equivalents (fol3Δ met13Δ cells supplemented with folinic acid and methionine as above) in 350 ul of Lysis Buffer (100 mM Sucrose, 50 mM KHPO4 (pH 6.3), protease inhibitor cocktail). Extracts were clarified by a brief microcentrifugation, and 10-200 ug of extract used to determine the linear range of activity. Radiolabeled substrate (5-[^14C]MeTHF) was from GE Healthcare Life Sciences. For heat treatment, the reaction mixes without 5-[^14C]MeTHF were heated to 55° C. for the indicated times at which point 5-[^14C]MeTHF was added back and the reaction proceeded.
In addition to measuring specific activity, variants were tested for thermolability (a measure of enzyme stability) by heat treatment at 55° C. for various times.

[4] = tested on: fol3Δ::KanMX MET13 haploid yeast; type: cell-based, S. cerevisiae; settings: for Effect of folinic acid supplementation on growth: fol3Δ MET13 cells
human MTHFR [5] = molecular target: T1, human MTHFR (Homo sapiens, UniProt P42898); experiment: In vivo yeast complementation growth assay: MTHFR alleles in fol3 met13 haploid yeast, growth without methionine with titrated folinic acid; type: cell-based; settings: folinic acid above 50 ug/ml; fol3 met13 cells
T1 construct: expressed in transfected cells; host or cells: Saccharomyces cerevisiae fol3Δ::KanMX met13Δ::KanMX (S288c background), GAL1 promoter
T1 sequence (P42898 whole entry): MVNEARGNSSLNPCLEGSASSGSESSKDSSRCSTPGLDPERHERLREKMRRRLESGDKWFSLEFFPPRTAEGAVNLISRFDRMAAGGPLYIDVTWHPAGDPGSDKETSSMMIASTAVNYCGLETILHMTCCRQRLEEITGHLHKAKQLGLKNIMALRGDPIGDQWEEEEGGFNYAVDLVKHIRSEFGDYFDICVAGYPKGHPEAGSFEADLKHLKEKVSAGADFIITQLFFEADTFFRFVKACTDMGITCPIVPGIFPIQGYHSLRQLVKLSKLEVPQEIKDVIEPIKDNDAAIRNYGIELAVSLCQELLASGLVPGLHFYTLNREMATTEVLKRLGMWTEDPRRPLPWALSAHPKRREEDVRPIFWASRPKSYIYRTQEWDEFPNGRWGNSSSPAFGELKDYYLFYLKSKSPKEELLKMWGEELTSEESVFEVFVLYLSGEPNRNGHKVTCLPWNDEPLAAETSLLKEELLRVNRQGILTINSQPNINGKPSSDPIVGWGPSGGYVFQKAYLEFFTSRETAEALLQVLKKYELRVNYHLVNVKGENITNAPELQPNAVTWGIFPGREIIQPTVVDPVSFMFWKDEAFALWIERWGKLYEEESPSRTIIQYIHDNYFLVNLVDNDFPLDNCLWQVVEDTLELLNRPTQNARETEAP

human CBS = experiment: Yeast complementation assay for CBS as a function of pyridoxine (cys4, sno/snz sextuple-delete strain); type: cell-based; settings: qualitative growth on solid media

## O=C(O)c1cccnc1 [Niacin]
[1]
  UL (Upper Limit): 35 mg

## D291N: low-frequency human MTHFR variant, catalytic domain substitution D291N
Human MTHFR [2]
  Interaction of substitutions in compound (double-substitution) alleles with A222V: synergized when combined with A222V
  Functional impact / folate-responsiveness of MTHFR allele (growth in the absence of methionine): folate-remedial behavior

## R134C: low-frequency human MTHFR variant, catalytic domain substitution R134C
Human MTHFR [2]
  Functional impact / folate-responsiveness of MTHFR allele (growth in the absence of methionine): severely impaired at all folate concentrations; also recorded: responsive, but not a remedial allele; also recorded: nearly loss-of-function

## major allele: most common human MTHFR allele in the population, expressed in yeast
Human MTHFR [2]
  Functional impact / folate-responsiveness of MTHFR allele (growth in the absence of methionine): did not completely compensate for loss of Met13p

## C[N+](C)(C)CCO [Choline]
[1]
  UL (Upper Limit): 3500 mg

## Vitamin B-6
[1]
  UL (Upper Limit): 100 mg

## M110I: low-frequency human MTHFR variant, catalytic domain substitution M110I
Human MTHFR [2]; 50 ug/ml folinic acid
  MTHFR function (growth) relative to the major allele: nearly indistinguishable from the major allele
Human MTHFR [2]
  Interaction of substitutions in compound (double-substitution) alleles with A222V: synergized when combined with A222V
  Functional impact / folate-responsiveness of MTHFR allele (growth in the absence of methionine): folate-remedial behavior
Human MTHFR [2]; listed as MilOl
  Functional impact / folate-responsiveness of MTHFR allele (growth in the absence of methionine): folate-remedial activity similar to A222V (though less severely impaired)

## A222V: common functionally impaired human MTHFR variant, catalytic domain substitution A222V
Human MTHFR [2]
  Functional impact / folate-responsiveness of MTHFR allele (growth in the absence of methionine): folate-remedial behavior
Human MTHFR [3]
  Thermolability: lost nearly all activity

## M110I A222V: doubly-substituted compound human MTHFR allele
Human MTHFR [2]
  Interaction of substitutions in compound (double-substitution) alleles with A222V: functioned more poorly than the sum of the individual alleles

## 5-formyl-tetrahydrofolate [folinic acid]
[4]; fol3Δ cells vs FOL3 cells
  Folinic acid supplementation compared to growth of FOL3 cells: did not completely compensate for lack of endogenous folate biosynthesis
[4]; folinic acid above 50 ug/ml
  Effect of folinic acid supplementation on growth: did not confer any significant growth advantage
[4]; folinic acid below 50 ug/ml
  Effect of folinic acid supplementation on growth: growth clearly correlated with available folinic acid in the medium
Human MTHFR [5]
  Effect of folinic acid supplementation on growth of cells expressing the major human MTHFR allele: did not confer a significant growth advantage

## D223N: novel low-frequency human MTHFR variant, catalytic domain substitution D223N
Human MTHFR [2]
  Functional impact / folate-responsiveness of MTHFR allele (growth in the absence of methionine): folate-remedial activity similar to A222V (though less severely impaired); also recorded: folate-remedial behavior
Human MTHFR [3]
  Thermolability: increased thermolability

## O=C1O[C@H]([C@@H](O)CO)C(O)=C1O [Vitamin C]
[1]
  UL (Upper Limit): 2000 mg

## R519C: low-frequency human MTHFR variant, regulatory domain substitution R519C
Human MTHFR [2]
  Functional impact / folate-responsiveness of MTHFR allele (growth in the absence of methionine): benign

## H213R: low-frequency human MTHFR variant, catalytic domain substitution H213R
Human MTHFR [2]
  Functional impact / folate-responsiveness of MTHFR allele (growth in the absence of methionine): benign

B1: 1278T: homocystinuria allele of human CBS, vitamin B6-responsive (protein, UniProt P35520 1-551, looked up, variant I278T)
Cystathionine beta-synthase: MPSETPQAEVGPTGCPHRSGPHSAKGSLEKGSPEDKEAKEPLWIRPDAPSRCTWQLGRPASESPHHHTAPAKSPKILPDILKKIGDTPMVRINKIGKKFGLKCELLAKCEFFNAGGSVKDRISLRMIEDAERDGTLKPGDTIIEPTSGNTGIGLALAAAVRGYRCIIVMPEKMSSEKVDVLRALGAEIVRTPTNARFDSPESHVGVAWRLKNEIPNSHILDQYRNASNPLAHYDTTADEILQQCDGKLDMLVASVGTGGTITGIARKLKEKCPGCRITGVDPEGSILAEPEELNQTEQTTYEVEGIGYDFIPTVLDRTVVDKWFKSNDEEAFTFARMLIAQEGLLCGGSAGSTVAVAVKAAQELQEGQRCVVILPDSVRNYMTKFLSDRWMLQKGFLKEEDLTEKKPWWWHLRVQELGLSAPLTVLPTITCGHTIEILREKGFDQAPVVDEAGVILGMVTLGNMLSSLLAGKVQPSDQVGKVIYKQFKQIRLTDTLGRLSHILEMDHFALVVHEQIQYHSTGKSSQRQMVFGVVTAIDLLNFVAAQERDQK
Human CBS
  Rescue of cys4 yeast growth defect as a function of pyridoxine supplementation: more sensitive than the wild-type enzyme to limiting B6 levels

B2: R266K: homocystinuria allele of human CBS, vitamin B6-responsive (protein, UniProt P35520 1-551, looked up, variant R266K)
Cystathionine beta-synthase: MPSETPQAEVGPTGCPHRSGPHSAKGSLEKGSPEDKEAKEPLWIRPDAPSRCTWQLGRPASESPHHHTAPAKSPKILPDILKKIGDTPMVRINKIGKKFGLKCELLAKCEFFNAGGSVKDRISLRMIEDAERDGTLKPGDTIIEPTSGNTGIGLALAAAVRGYRCIIVMPEKMSSEKVDVLRALGAEIVRTPTNARFDSPESHVGVAWRLKNEIPNSHILDQYRNASNPLAHYDTTADEILQQCDGKLDMLVASVGTGGTITGIAKKLKEKCPGCRIIGVDPEGSILAEPEELNQTEQTTYEVEGIGYDFIPTVLDRTVVDKWFKSNDEEAFTFARMLIAQEGLLCGGSAGSTVAVAVKAAQELQEGQRCVVILPDSVRNYMTKFLSDRWMLQKGFLKEEDLTEKKPWWWHLRVQELGLSAPLTVLPTITCGHTIEILREKGFDQAPVVDEAGVILGMVTLGNMLSSLLAGKVQPSDQVGKVIYKQFKQIRLTDTLGRLSHILEMDHFALVVHEQIQYHSTGKSSQRQMVFGVVTAIDLLNFVAAQERDQK
Human CBS
  Rescue of cys4 yeast growth defect as a function of pyridoxine supplementation: more sensitive than the wild-type enzyme to limiting B6 levels
